# Source: US20110117081A1, “FUNCTIONALIZED PYRROLIDINES AND USE THEREOF AS IAP INHIBITORS” (priority 2008, published 2011)
# System: Colorectal carcinoma HCT116 cells
# Assay: HCT116 + ETR1 cell viability assay (MTT)
# Type: cell-based
# Conditions: with ETR1 (40 ng/ml), 72 hrs
# Procedure: Colorectal carcinoma HCT116 cells (ATCC# CCL-247) were cultured as monolayers in 96 well plates at a density of 2000 cells per well in 100 ul of McCoy's 5a medium (HyClone) supplemented with 2.2 g/L sodium bicarbonate (Gibco), 10% FBS (HyClone) and 1% penecillin/streptomycin (HyClone) for 24 hours. Triplicate wells of cells were treated for 72 hrs at 37° C. (5% CO2) with 50 ul of HGS agonistic Trail receptor antibody, ETR1 (40 ng/ml) in combination with 50 ul of diluted compound (0.01 to 10000 nM). Metabolic viability of remaining cells was assessed by MTT assay.
# The percentage viability of compound-treated cells was expressed as a fraction of the absorbance/luminescence signal obtained from non-treated cells. EC50 values (corresponding to 50% cell survival in the presence of compound as compared to untreated controls) were calculated from MTT survival curves (HCT116 and SKOV3) using BioAssay software (CambridgeSoft) and from Cell Titer-Glo survival curves (synovioycte and Jurkat cells) using GraphPad Prism (Graph Pad Software Inc.). In the below chart, EC50 values are summarized as follows: a=EC50 of less than 10 nM; b=EC50 of 10-100 nM; and c=EC50 of greater than 100 nM.
row,EC50 [nM],Structure (SMILES)
1,< 10,CN[C@@H](C)C(=O)N[C@H](C(=O)N1C[C@@H](NC(=O)c2ccc(C(=O)N[C@H]3C[C@@H](C(=O)NCc4ccc(F)cc4)N(C(=O)[C@@H](NC(=O)[C@H](C)NC)C4CCCCC4)C3)cc2)C[C@H]1C(=O)NCc1ccc(F)cc1)C1CCCCC1 [Compound 38]
2,10 to 100,CN[C@@H](C)C(=O)N[C@H](C(=O)N1C[C@@H](NC(=O)c2ccc(C(=O)N[C@H]3C[C@@H](C(=O)Nc4cc(C)nn4-c4ccccc4)N(C(=O)[C@@H](NC(=O)[C@H](C)NC)C4CCCCC4)C3)cc2)C[C@H]1C(=O)Nc1cc(C)nn1-c1ccccc1)C1CCCCC1 [Compound 49]
3,10 to 100,CN[C@@H](C)C(=O)N[C@H](C(=O)N1C[C@@H](NC(=O)c2ccc(C(=O)N[C@H]3C[C@@H](C(=O)N[C@@H]4CCCc5ccccc54)N(C(=O)[C@@H](NC(=O)[C@H](C)NC)C4CCOCC4)C3)cc2)C[C@H]1C(=O)N[C@@H]1CCCc2ccccc21)C1CCOCC1 [Compound 46]
4,< 10,CN[C@@H](C)C(=O)N[C@H](C(=O)N1C[C@@H](NC(=O)c2ccc(C(=O)N[C@H]3C[C@@H](C(=O)N[C@@H]4CCCc5cc(F)ccc54)N(C(=O)[C@@H](NC(=O)[C@H](C)NC)C4CCCCC4)C3)cc2)C[C@H]1C(=O)N[C@@H]1CCCc2cc(F)ccc21)C1CCCCC1 [Compound 40]
5,10 to 100,CN[C@@H](C)C(=O)N[C@H](C(=O)N1C[C@@H](NC(=O)c2ccc(C(=O)N[C@H]3C[C@@H](C(=O)N[C@H]4CCOc5ccccc54)N(C(=O)[C@@H](NC(=O)[C@H](C)NC)C4CCCCC4)C3)cc2)C[C@H]1C(=O)N[C@H]1CCOc2ccccc21)C1CCCCC1 [Compound 58]
6,< 10,CN[C@@H](C)C(=O)N[C@H](C(=O)N1C[C@@H](NC(=O)c2cnc(C(=O)N[C@H]3C[C@@H](C(=O)N[C@@H]4CCCc5ccccc54)N(C(=O)[C@@H](NC(=O)[C@H](C)NC)C4CCCCC4)C3)cn2)C[C@H]1C(=O)N[C@@H]1CCCc2ccccc21)C1CCCCC1 [Compound 55]
7,< 10,CN[C@@H](C)C(=O)N[C@H](C(=O)N1C[C@@H](NC(=O)c2ccc(C(=O)N[C@H]3C[C@@H](C(=O)N[C@@H]4CCCc5ccccc54)N(C(=O)[C@@H](NC(=O)[C@H](C)NC)C4CCCC4)C3)cc2)C[C@H]1C(=O)N[C@@H]1CCCc2ccccc21)C1CCCC1 [Compound 43]
8,10 to 100,CN[C@@H](C)C(=O)N[C@H](C(=O)N1C[C@@H](NC(=O)c2ccc(C(=O)N[C@H]3C[C@@H](C(=O)N4CC[C@H](c5ccccc5)C4)N(C(=O)[C@@H](NC(=O)[C@H](C)NC)C4CCCCC4)C3)cc2)C[C@H]1C(=O)N1CC[C@H](c2ccccc2)C1)C1CCCCC1 [Compound 39]
9,10 to 100,CN[C@@H](C)C(=O)N[C@H](C(=O)N1C[C@@H](NC(=O)c2ccc(C(=O)N[C@H]3C[C@@H](C(=O)N(C)[C@H](C)c4ccccc4)N(C(=O)[C@@H](NC(=O)[C@H](C)NC)C4CCCCC4)C3)cc2)C[C@H]1C(=O)N(C)[C@H](C)c1ccccc1)C1CCCCC1 [Compound 48]
10,< 10,CN[C@@H](C)C(=O)N[C@H](C(=O)N1C[C@@H](NC(=O)c2cnc(C(=O)N[C@H]3C[C@@H](C(=O)N[C@@H]4CCOc5ccccc54)N(C(=O)[C@@H](NC(=O)[C@H](C)NC)C4CCCCC4)C3)cn2)C[C@H]1C(=O)N[C@@H]1CCOc2ccccc21)C1CCCCC1 [Compound 54]
11,10 to 100,CN[C@H](C(=O)N[C@H](C(=O)N1C[C@@H](NC(=O)c2ccc(C(=O)N[C@H]3C[C@@H](C(=O)N[C@@H]4CCCc5ccccc54)N(C(=O)[C@@H](NC(=O)[C@@H](NC)C4CC4)C4CCCCC4)C3)cc2)C[C@H]1C(=O)N[C@@H]1CCCc2ccccc21)C1CCCCC1)C1CC1 [Compound 50]

row,Structure (SMILES),EC50 [nM]
1,CN[C@@H](C)C(=O)N[C@H](C(=O)N1C[C@@H](NC(=O)c2ccc(C(=O)N[C@H]3C[C@@H](C(=O)N[C@H](C)c4ccc(OC)cc4)N(C(=O)[C@@H](NC(=O)[C@H](C)NC)C4CCCCC4)C3)cc2)C[C@H]1C(=O)N[C@H](C)c1ccc(OC)cc1)C1CCCCC1 [Compound 34],< 10
